ChEMBL document CHEMBL1201862, “PubChem BioAssay data set” (2004)
Active and inactive are the calls of the source.

How the values were obtained:
[1] = Luminescence Cell-Based Dose Response HTS to Identify Activators of Luciferase Translation or Activity in H4 […] Cells. [Related pubchem assays: 1829 (Project Summary), 1814 (Primary HTS)]; format: functional
[2] = tested on: H4; test: Luminescence Cell-Based Dose Response HTS to Identify Activators of 5'UTR Stem-Loop Driven Prion Protein mRNA Translation in H4 Neuroglioblastoma Cells. [Related pubchem assays: 1829 (Project Summary), 1814 (Primary HTS)]; format: functional; conditions: Homo sapiens
[3] = molecular target: Cytochrome P450 2C19 (Homo sapiens, UniProt P33261); test: Cytochrome panel assay with activity outcomes. Panel member name: p450-cyp2c19 Compounds with AC50 equal or less than 10 uM are considered active; format: functional
[4] = molecular target: Cytochrome P450 3A4 (Homo sapiens, UniProt P08684);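 further: CYP3A4 tested as one member of a cytochrome P450 panel screen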
[5] = molecular target: T1, Cytochrome P450 1A2 (Homo sapiens, UniProt P05177);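 further: PubChem cytochrome P450 panel assay, CYP1A2 panel member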
T1 sequence (P05177 whole entry): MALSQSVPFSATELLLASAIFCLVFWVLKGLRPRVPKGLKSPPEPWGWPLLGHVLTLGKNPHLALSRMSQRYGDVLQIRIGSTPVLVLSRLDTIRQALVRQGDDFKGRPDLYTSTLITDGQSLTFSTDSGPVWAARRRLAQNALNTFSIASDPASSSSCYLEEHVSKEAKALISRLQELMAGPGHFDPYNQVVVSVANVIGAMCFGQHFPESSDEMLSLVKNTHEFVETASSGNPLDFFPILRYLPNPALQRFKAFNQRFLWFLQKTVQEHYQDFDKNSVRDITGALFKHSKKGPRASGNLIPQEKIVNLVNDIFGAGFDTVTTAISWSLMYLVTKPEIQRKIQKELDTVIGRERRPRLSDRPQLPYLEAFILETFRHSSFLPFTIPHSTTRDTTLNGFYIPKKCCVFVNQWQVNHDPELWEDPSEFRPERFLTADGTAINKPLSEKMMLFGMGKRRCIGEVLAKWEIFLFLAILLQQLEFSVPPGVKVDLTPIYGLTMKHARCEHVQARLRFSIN

[6] = Trypanosoma cruzi growth suppression in host cells – NIH3T3 host cells, beta-gal luminescence, confirmation (AID 2044); format: functional, cell-based;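 further: intracellular parasites grown in NIH/3T3 mouse fibroblasts as host cells; luminescent beta-galactosidase reporter signal from transgenic T. cruzi replicating inside host cells; inhibitors lower the luminescence signal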
[7] = NIH3T3 cell viability loss – ATP luminescence, mouse fibroblasts, counter-screen, dose response (AID 2010); format: functional, cell-based;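 further: cells exposed to compound for about 90 hours before reading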
[8] = molecular target: T2, Corticotropin-releasing factor receptor 2/Corticotropin-releasing factor-binding protein (Homo sapiens, UniProt P24387+Q13324); test: activators of CRF receptor 2 with binding protein – uHTS hits, confirmation (AID 602473); format: functional; conditions: read-out: EC50_Mean
T2 sequence (Q13324 whole entry): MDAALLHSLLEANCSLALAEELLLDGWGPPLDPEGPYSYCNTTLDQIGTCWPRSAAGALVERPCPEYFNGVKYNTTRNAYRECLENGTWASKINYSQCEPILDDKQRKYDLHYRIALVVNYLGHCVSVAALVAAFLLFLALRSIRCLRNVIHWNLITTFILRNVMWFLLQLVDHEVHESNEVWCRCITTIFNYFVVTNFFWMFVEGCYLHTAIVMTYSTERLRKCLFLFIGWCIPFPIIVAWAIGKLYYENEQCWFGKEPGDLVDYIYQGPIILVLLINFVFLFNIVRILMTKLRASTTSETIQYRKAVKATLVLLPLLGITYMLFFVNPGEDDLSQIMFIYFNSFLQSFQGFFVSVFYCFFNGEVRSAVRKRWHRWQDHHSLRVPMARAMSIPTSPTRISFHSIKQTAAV
T2 sequence (P24387 whole entry): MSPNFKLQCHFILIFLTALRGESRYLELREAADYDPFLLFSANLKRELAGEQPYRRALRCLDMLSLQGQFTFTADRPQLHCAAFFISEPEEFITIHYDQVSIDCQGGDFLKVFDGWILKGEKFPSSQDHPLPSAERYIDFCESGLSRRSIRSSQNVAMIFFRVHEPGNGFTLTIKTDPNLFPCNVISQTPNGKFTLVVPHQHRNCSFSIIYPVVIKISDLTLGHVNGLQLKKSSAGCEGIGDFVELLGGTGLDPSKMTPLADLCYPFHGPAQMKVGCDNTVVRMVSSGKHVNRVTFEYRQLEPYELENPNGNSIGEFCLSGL

Cytochrome P450 2C19, sequence (P33261 whole entry): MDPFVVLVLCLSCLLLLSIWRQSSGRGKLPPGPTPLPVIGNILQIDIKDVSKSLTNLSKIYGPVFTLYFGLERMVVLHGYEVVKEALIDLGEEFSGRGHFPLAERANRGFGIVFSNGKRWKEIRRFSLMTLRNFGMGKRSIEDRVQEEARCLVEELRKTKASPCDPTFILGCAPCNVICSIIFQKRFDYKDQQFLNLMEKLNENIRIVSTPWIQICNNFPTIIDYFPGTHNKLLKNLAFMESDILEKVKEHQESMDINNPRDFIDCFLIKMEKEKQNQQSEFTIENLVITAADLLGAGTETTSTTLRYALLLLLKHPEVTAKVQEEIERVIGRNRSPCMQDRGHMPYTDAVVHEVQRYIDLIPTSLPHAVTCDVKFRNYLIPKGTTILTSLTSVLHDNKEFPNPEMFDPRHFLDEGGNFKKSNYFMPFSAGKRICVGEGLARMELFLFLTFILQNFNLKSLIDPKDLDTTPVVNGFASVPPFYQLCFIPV
Cytochrome P450 3A4, sequence (P08684 whole entry): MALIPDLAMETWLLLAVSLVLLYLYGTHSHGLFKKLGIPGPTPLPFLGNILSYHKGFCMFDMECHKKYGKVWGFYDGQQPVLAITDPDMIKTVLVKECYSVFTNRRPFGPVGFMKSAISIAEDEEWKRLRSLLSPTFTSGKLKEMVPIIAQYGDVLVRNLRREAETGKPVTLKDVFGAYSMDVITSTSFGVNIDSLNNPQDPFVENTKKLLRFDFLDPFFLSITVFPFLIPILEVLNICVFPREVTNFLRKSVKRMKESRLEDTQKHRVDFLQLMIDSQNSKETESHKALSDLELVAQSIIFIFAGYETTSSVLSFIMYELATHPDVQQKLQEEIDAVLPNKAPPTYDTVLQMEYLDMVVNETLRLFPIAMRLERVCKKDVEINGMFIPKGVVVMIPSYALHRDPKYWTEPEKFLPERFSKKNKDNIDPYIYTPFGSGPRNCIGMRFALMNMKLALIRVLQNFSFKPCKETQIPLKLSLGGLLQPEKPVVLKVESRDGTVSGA

Compound	AC50 [4]	AC50 [5]	further results
CCOc1ccc(N2C(=O)C(Cl)=C(Nc3ccccc3O)C2=O)cc1			EC50 [1]: > 120 µM (not active); EC50 [2]: 0.107 µM (active)
CCCc1ccc(-c2cc(C(=O)NN3CCOCC3)c3ccccc3n2)cc1	12.6 µM (inconclusive)		AC50 ([3]; read-out: AC50): 15.8 µM (inconclusive)
CC1CCC(NC(=O)CC(C)(C)Cc2nc(O)c3ccccc3n2)CC1 (stereo unspecified)		22.4 µM (inconclusive)	
O=C1CCCC=C1[C@@H](O)COCc1ccccc1	3.16 µM (inconclusive)		
CN(Cc1ccco1)c1ncnc2ccc(-c3ccccc3C#N)cc12	31.6 µM (inconclusive)		
Cc1ccc(C)c(NC(=N)Nc2nc(C)cc(C)n2)c1		14.1 µM (inconclusive)	AC50 [3]: inconclusive; EC50 [6]: 1.2 µM (active); EC50 [7]: > 60 µM (inconclusive)
Cc1cc(C)c(S(=O)(=O)N2CCN(c3ccc([N+](=O)[O-])c(NCC4CCCO4)c3)CC2)c(C)c1 (stereo unspecified)	3.55 µM (inconclusive)		
COc1ccc(Oc2ncc3nc(CCc4ccccc4)c(=O)n(CCC#N)c3n2)cc1		6.31 µM (inconclusive)	
Cn1c(=O)c(-c2ccccc2)nc2cncnc21	12.6 µM (inconclusive)		
Cc1noc(C)c1-c1cncnc1NCc1ccccc1		25.1 µM (inconclusive)	
CNC(=O)[C@@H]1O[C@@H](n2cnc3c(NCc4ccc(N)cc4)ncnc32)[C@@H](O)[C@H]1O	25.1 µM (inconclusive)		
CN1CCCC2(CCN(C(=O)c3cc(C(F)(F)F)cc(C(F)(F)F)c3)CC2)C1	25.1 µM (inconclusive)		AC50 ([3]; read-out: AC50): 25.1 µM (inconclusive)
CC[C@]1(O)C[C@@H]2CN(CCc3c([nH]c4ccccc34)[C@](C(=O)OC)(c3cc4c(cc3OC)N(C=O)[C@H]3[C@@](O)(C(=O)OC)[C@H](C(=O)OC)[C@@]5(CC)C=CCN6CC[C@]43[C@H]65)C2)C1	25.1 µM (inconclusive)		
O=C(COC(=O)[C@H](Cc1ccccc1)NC(=O)c1ccco1)NCc1ccccc1			EC50 [8]: 10.4 µM (active)
Cc1cccc2nc(C(F)(F)F)nc(=O)n12		0.0316 µM (inconclusive)	AC50 ([3]; read-out: AC50): 28.2 µM (inconclusive)
O=C(Nc1ccc(Cl)cc1)OCCn1nnnc1C(c1ccccc1Cl)N1CCOCC1 (stereo unspecified)	0.891 µM (inconclusive)		
CC(C)(C)C(=O)N(CCN(C(=O)C(C)(C)C)c1ccccc1)c1ccccc1	7.08 µM (inconclusive)		AC50 ([3]; read-out: AC50): 8.91 µM (inconclusive)
O=C(c1cnccn1)N1CCC2(CC1)CN(c1cccc(-c3ccccc3)c1)C2	39.8 µM (inconclusive)	15.8 µM (inconclusive)	
CC(=O)NCCNc1nc(-c2ccccc2C(F)(F)F)nc2ccccc12	12.6 µM (inconclusive)		
COC(=O)[C@@]1(Cc2ccc(OC)cc2)[C@H]2c3cc(C(=O)N4CCCC4)n(CCc4c[nH]c5ccc(OC)cc45)c3C[C@H]2CN1C(=O)c1ccccc1		10 µM (inconclusive)	
CC(c1ccccc1C(O)(c1ccccc1)c1ccccc1)N(C)C (stereo unspecified)			EC50 [8]: 4.62 µM (active)
Cc1noc(C)c1C(=O)N1CCC2(CCCN(C(=O)Nc3cccc(F)c3)C2)CC1	15.8 µM (inconclusive)	15.8 µM (inconclusive)	
COCCn1c(=O)c(-c2cccc(F)c2)nc2cncnc21	15.8 µM (inconclusive)		AC50 ([3]; read-out: AC50): 39.8 µM (inconclusive)
N=C(NOC(=O)/C=C/c1ccccc1Cl)c1cccnc1			EC50 [2]: 22.8 µM (active)
COc1ccccc1CNc1ncncc1-c1cccc(C#N)c1	0.316 µM (inconclusive)		
CC[C@](N)(CCC(=O)O)C(=O)O		20 µM (inconclusive)	

Compound	AC50 [4]	AC50 [5]	further results
OC(Cc1nc2ccccc2[nH]1)c1ccccc1Cl (stereo unspecified)		25.1 µM (inconclusive)	
CN1C[C@@H](CS(=O)(=O)N(C)C)C[C@H]2c3cccc4c3c(cn4C)C[C@@H]21		25.1 µM (inconclusive)	
COc1ccc(NC(=O)N2CC3(CCN(C(=O)c4ccc(OC)cc4)CC3)C2)cc1	25.1 µM (inconclusive)		
Cc1c(NC(=O)NC(C)N2C(=O)C3C4C=CC(C4)C3C2=O)c(=O)n(-c2ccccc2)n1C (stereo unspecified)	25.1 µM (inconclusive)		
O=C(c1cccc(F)c1)N1CCC2(CCCN(c3ccc(-c4ccccc4)cc3)C2)CC1	12.6 µM (inconclusive)		AC50 ([3]; read-out: AC50): 20 µM (inconclusive)
CC(=O)c1cc(CC=C(C)C)c(O)cc1O	1.41 µM (inconclusive)		
O=C(Nc1cccn(Cc2c(Cl)cccc2Cl)c1=O)c1ccc(Cl)cc1Cl	14.1 µM (inconclusive)	2.82 µM (inconclusive)	
CC(C)(C)c1nc(SCC(=O)Nc2ccc3c(c2)OCCO3)c2ccccc2n1		10 µM (inconclusive)	
O=C1Nc2ccccc2C2=N[C@@H](CN3CCN(c4ccccc4)CC3)CN12		20 µM (inconclusive)	
COc1ccc(-c2nc3cnc(OC)nc3n(-c3ccc(OC)cc3)c2=O)cc1	15.8 µM (inconclusive)	0.316 µM (inconclusive)	
COc1cc(OC)c(C2C(C(=O)O)c3ccccc3C(=O)N2C)cc1OC (stereo unspecified)	0.355 µM (inconclusive)	31.6 µM (inconclusive)	
Nc1c2c(=O)oc(-c3ccccc3)cc2nn1-c1ccccc1	25.1 µM (inconclusive)		
O=C(NCc1cccc(Cl)c1)c1cccc(S(=O)(=O)N2CCCC2)c1			EC50 [8]: > 53 µM (inactive)
Cc1nc2c(c(=O)c3ccccc3n2C)c(=O)n1C1CCCCCC1			EC50 [8]: 9.6 µM (active)
O=C(O)CN1C(=O)CN=C(c2ccccn2)c2cc(Cl)ccc21		1.26 µM (inconclusive)	
Cc1cccc(-n2nnc3cnn(C)c3c2=O)c1	31.6 µM (inconclusive)	12.6 µM (inconclusive)	
O=C1[C@H]2[C@H]3[C@H](O)[C@H](O)C/C(=N/OC[C@@H](O)COCc4ccco4)[C@@H]3CC[C@@H]2C(=O)N1C1CCCCC1	5.01 µM (inconclusive)		
CCOC(=O)/C(=C\c1ccc(N2CCC(c3ccccc3)=N2)cc1)C(C)=O			EC50 [8]: 7.05 µM (active)
COc1ncc2ncc(=O)n(CCC#N)c2n1		20 µM (inconclusive)	
Cc1cccn2c(=O)c3cc(C#N)/c(=N\C(=O)c4cccnc4)n(CC4CCCO4)c3nc12 (stereo unspecified)			EC50 [8]: > 53 µM (inactive)
O=C(NC(C(=O)N/N=C/c1cccnc1)c1nnc(O)c2ccccc12)c1ccccc1 (stereo unspecified)			EC50 [8]: 7.94 µM (active)
COc1ccc(NC(=O)c2ccc(-c3ccc(-c4noc(C)n4)cc3C)cc2)cc1OCCN(C)C	15.8 µM (inconclusive)	39.8 µM (inconclusive)	
CC(C)N1C(=O)/C(=C\c2c[nH]c3ccccc23)S/C1=N\c1ccccc1	22.4 µM (inconclusive)	4.47 µM (inconclusive)	AC50 ([3]; read-out: AC50): 2 µM (inconclusive)
S=C=Nc1cccc(C2(N3CCCCC3)CCCCC2)c1		31.6 µM (inconclusive)	
O=c1oc2ccccc2c(O)c1Cc1c(O)c2ccccc2oc1=O [DICUMAROL]		12.6 µM (inconclusive)	AC50 ([3]; read-out: AC50): 10 µM (inconclusive)
